Measurements reported in patent US11179412B2, “Methods of treating conditions involving elevated inflammatory response” (University of Pittsburgh—Of the Commonwealth System of …, priority 2017, dated 2021).
Structures can show the parent of a compound that is named as a salt.

System: STING activation (IFNβ release) in iBMDMs
Test: IFNβ release ELISA after STING ligand (or LPS) stimulation, iBMDMs
Assay type: cell-based, mouse
Conditions: iBMDMs; 3′3′-cGAMP 10 μg/ml, 16 hours; compound 10 μM
Text: Commercially available enzyme-linked immunosorbent assay (ELISA) kits were used to measure the concentrations of mouse IFNβ (Thermo Fisher Scientific) or human IFNβ (Thermo Fisher Scientific) in culture medium according to the manufacturer's instructions. […]

## O=C(/C=C/c1cccc(S(=O)(=O)Nc2ccccc2)c1)NO [Belinostat (PXD101), Belinostat]
  fold increase in IFN-β release: 0.70 fold

## COc1c(O)cc2c(c1O)[C@@H]1O[C@H](CO)[C@@H](O)[C@H](O)[C@H]1OC2=O [Bergenin]
  fold increase in IFN-β release: 0.57 fold

## CC[C@H](NC(=O)[C@H](C)NC)C(=O)N1C[C@@H](O)C[C@H]1Cc1c(-c2[nH]c3cc(F)ccc3c2C[C@@H]2C[C@H](O)CN2C(=O)[C@H](CC)NC(=O)[C@H](C)NC)[nH]c2cc(F)ccc12 [Birinapant]
  fold increase in IFN-β release: 1.15 fold

## CC(C)NCC(O)COc1ccc(COCCOC(C)C)cc1 (stereo not drawn) [Bisoprolol fumarate]
  fold increase in IFN-β release: 0.70 fold

## CC(C)C[C@H](NC(=O)[C@H](Cc1ccccc1)NC(=O)c1cnccn1)B(O)O [Bortezomib (PS-341), Bortezomib]
  fold increase in IFN-β release: 0.37 fold

## COc1ccccc1Oc1c(NS(=O)(=O)c2ccc(C(C)(C)C)cc2)nc(-c2ncccn2)nc1OCCO [Bosentan Hydrate]
  fold increase in IFN-β release: 1.20 fold

## COc1cc(Nc2c(C#N)cnc3cc(OCCCN4CCN(C)CC4)c(OC)cc23)c(Cl)cc1Cl [Bosutinib (SKI-606), Bosutinib]
  fold increase in IFN-β release: 1.78 fold

## CCN[C@H]1CN(CCCOC)S(=O)(=O)c2sc(S(N)(=O)=O)cc21 [Brinzolamide]
  fold increase in IFN-β release: 1.93 fold

## CCCCN1CCCCC1C(=O)Nc1c(C)cccc1C (stereo not drawn) [Bupivacaine HCl]
  fold increase in IFN-β release: 0.42 fold

## NC1(Cc2ccc(Cl)cc2)CCN(c2ncnc3[nH]ccc23)CC1 [CCT128930]
  fold increase in IFN-β release: 1.46 fold

## CC(C)C[C@H](NC(=O)[C@@H](NC(=O)c1cccc(-c2ccccc2)n1)[C@@H](C)O)B(O)O [CEP-18770 (Delanzomib), Delanzomib]
  fold increase in IFN-β release: 0.82 fold

## Cc1c(NC(=O)c2ccc(C(C)(C)C)cc2)cccc1-c1cn(C)c(=O)c(Nc2ccc(C(=O)N3CCOCC3)cc2)n1 [CG11746]
  fold increase in IFN-β release: 0.16 fold

## O=C(NC(NC(=S)Nc1ccc(F)c([N+](=O)[O-])c1)C(Cl)(Cl)Cl)C(c1ccccc1)c1ccccc1 (stereo not drawn) [CGK 733]
  fold increase in IFN-β release: 2.50 fold

## Nc1ncnc2n[nH]c(Nc3ccc(F)cc3)c12 [CGP 57380]
  fold increase in IFN-β release: 0.54 fold

## CCNC(=O)[C@H]1O[C@@H](n2cnc3c(N)nc(NCCc4ccc(CCC(=O)O)cc4)nc32)[C@H](O)[C@@H]1O [CGS 21680 HCl]
  fold increase in IFN-β release: 2.00 fold

## O=c1[nH]c2ccc(Cl)cc2c(N[C@@H]2CN3CCC2CC3)c1-c1nc2ccccc2[nH]1 [CHIR-124]
  fold increase in IFN-β release: 1.30 fold

## Cc1[nH]c2ccccc2c1CCNC(=O)c1cccs1 [CK-636]
  fold increase in IFN-β release: 2.06 fold

## C=CC(=O)Nc1cccc(Nc2nc(Nc3ccc(Oc4ccnc(C(=O)NC)c4)cc3)ncc2F)c1 [CNX-774]
  fold increase in IFN-β release: 0.73 fold

## C=CC(=O)Nc1cccc(Nc2nc(Nc3ccc(NC4CN(CCF)C4)cc3OC)ncc2C(F)(F)F)c1 [CNX-2006]
  fold increase in IFN-β release: 1.93 fold

## CN(C)C(=O)[C@H](O)[C@H](Cc1ccccc1)NC(=O)c1cc2cc(Cl)ccc2[nH]1 [CP-91149]
  fold increase in IFN-β release: 0.14 fold

## COCCOc1ccc2c(c1)ncn2-c1ccc2cccc(N3CCC(N)CC3)c2n1 [CP-673451]
  fold increase in IFN-β release: 0.27 fold

## O=C(O)c1cc2cccc([N+](=O)[O-])c2[nH]1 [CRT0044876]
  fold increase in IFN-β release: 2.75 fold

## O=C(O)c1cc(I)ccc1NC(=O)[C@H](Cc1ccccc1)NCc1ccccc1 [CW069]
  fold increase in IFN-β release: 4.03 fold

## O=C(/C=C/c1ccc(O)c(O)c1)OCCc1ccccc1 [Caffeic Acid Phenethyl Ester]
  fold increase in IFN-β release: 0.44 fold

## Cc1ccc([C@@H]2O[C@H](CO)[C@@H](O)[C@H](O)[C@H]2O)cc1Cc1ccc(-c2ccc(F)cc2)s1 [Canagliflozin]
  fold increase in IFN-β release: 1.58 fold

## CCOc1nc2cccc(C(=O)O)c2n1Cc1ccc(-c2ccccc2-c2nnn[nH]2)cc1 [Candesartan]
  fold increase in IFN-β release: 2.31 fold

## C[C@H](CS)C(=O)N1CCC[C@H]1C(=O)O [Captopril]
  fold increase in IFN-β release: 2.62 fold

## COc1ccccc1OCCNCC(O)COc1cccc2[nH]c3ccccc3c12 (stereo not drawn) [Carvedilol]
  fold increase in IFN-β release: 1.87 fold

## Cc1ccc(-c2cc(C(F)(F)F)nn2-c2ccc(S(N)(=O)=O)cc2)cc1 [Celecoxib]
  fold increase in IFN-β release: 0.76 fold

## COc1ccc([C@]2(C#N)CC[C@@H](C(=O)O)CC2)cc1OC1CCCC1 [Cilomilast]
  fold increase in IFN-β release: 2.08 fold

## C[C@@H](NCCCc1cccc(C(F)(F)F)c1)c1cccc2ccccc12 [Cinacalcet HCl]
  fold increase in IFN-β release: 0.55 fold

## CN1CCC[C@@H]1CCO[C@](C)(c1ccccc1)c1ccc(Cl)cc1 [Clemastine Fumarate]
  fold increase in IFN-β release: 1.32 fold

## C=C1C(=O)O[C@@H]2/C=C(\C)CC/C=C(\C)CC[C@@H]12 [Costunolide]
  fold increase in IFN-β release: 0.37 fold

## CC1(COc2ccc3c(c2)ncn3-c2ccc3cccc(N4CCC(N)CC4)c3n2)COC1 [Crenolanib (CP-868596), Crenolanib]
  fold increase in IFN-β release: 0.32 fold

## C[C@H]1COC2=C1C(=O)C(=O)c1c2ccc2c1CCCC2(C)C [Cryptotanshinone]
  fold increase in IFN-β release: 0.17 fold

## CC(=O)O[C@]1(C(C)=O)CC[C@H]2[C@@H]3C=C(Cl)C4=CC(=O)[C@@H]5C[C@@H]5[C@]4(C)[C@H]3CC[C@@]21C [Cyproterone Acetate]
  fold increase in IFN-β release: 1.24 fold

## c1ccc(CNc2nc(NCc3ccccc3)c3ccccc3n2)cc1 [DBeQ]
  fold increase in IFN-β release: 2.18 fold

## CNC(=O)c1cc(Oc2ccc(NC(=O)Nc3cc(C(C)(C)C)nn3-c3ccc4ncccc4c3)c(F)c2)ccn1 [DCC-2036 (Rebastinib), Rebastinib]
  fold increase in IFN-β release: 1.71 fold

## CC(C)Oc1ccc(-c2cnc3c(-c4ccnc5ccccc45)cnn3c2)cc1 [DMH1]
  fold increase in IFN-β release: 1.43 fold

## Cc1ccc2c(=O)c3cccc(CC(=O)O)c3oc2c1C [DMXAA (Vadimezan), 5,6-dimethylxanthenone-4-acetic acid]
  fold increase in IFN-β release: 3.23 fold

## CC(C)(C)c1nc(-c2cccc(NS(=O)(=O)c3c(F)cccc3F)c2F)c(-c2ccnc(N)n2)s1 [Dabrafenib (GSK2118436), Dabrafenib]
  fold increase in IFN-β release: 0.86 fold

## CCC(CC)CC1(C(=O)Nc2ccccc2SC(=O)C(C)C)CCCCC1 [Dalcetrapib (JTT-705, RO4607381), Dalcetrapib]
  fold increase in IFN-β release: 0.13 fold

## CCOc1ccc(Cc2cc([C@@H]3O[C@H](CO)[C@@H](O)[C@H](O)[C@H]3O)ccc2Cl)cc1 [Dapagliflozin]
  fold increase in IFN-β release: 1.57 fold

## COc1cccc2c1C(=O)c1c(O)c3c(c(O)c1C2=O)C[C@@](O)(C(C)=O)C[C@@H]3O[C@H]1C[C@H](N)[C@H](O)[C@H](C)O1 [Daunorubicin HCl]
  fold increase in IFN-β release: 0.11 fold

## COc1cc2nc(N3CCN(C(=O)C4COc5ccccc5O4)CC3)nc(N)c2cc1OC (stereo not drawn) [Doxazosin Mesylate]
  fold increase in IFN-β release: 0.69 fold

## C[C@]12C=CC(=O)N[C@@H]1CC[C@@H]1[C@@H]2CC[C@]2(C)[C@@H](C(=O)Nc3cc(C(F)(F)F)ccc3C(F)(F)F)CC[C@@H]12 [Dutasteride]
  fold increase in IFN-β release: 0.51 fold

## O=C(N/N=C/c1ccc(O)c(O)c1)c1cc2ccccc2cc1O [Dynasore]
  fold increase in IFN-β release: 1.62 fold

## CC(C)C[C@H](NC(=O)[C@H]1O[C@@H]1C(=O)O)C(=O)NCCCCN=C(N)N [E-64]
  fold increase in IFN-β release: 0.17 fold

## CCn1c2ccccc2c2cc(Nc3ccnc(NCCCN4CCOCC4)n3)ccc21 [EHop-016]
  fold increase in IFN-β release: 1.69 fold

## CCN(c1cc(-c2ccc(CN3CCOCC3)cc2)cc(C(=O)NCc2c(C)cc(C)[nH]c2=O)c1C)C1CCOCC1 [EPZ-6438]
  fold increase in IFN-β release: 1.03 fold

## COc1cccc(C=NCCN=Cc2cccc(OC)c2[O-])c1[O-].[Cl-].[Mn+3] [EUK 134]
  fold increase in IFN-β release: 1.10 fold

## NC(=O)C1CCCc2c1[nH]c1ccc(Cl)cc21 (stereo not drawn) [EX 527 (Selisistat), Selisistat]
  fold increase in IFN-β release: 0.98 fold

## COc1cc2c(cc1Cc1cccc(Cl)c1F)c(=O)c(C(=O)O)cn2[C@H](CO)C(C)C [Elvitegravir (GS-9137, JTK-303), Elvitegravir]
  fold increase in IFN-β release: 2.56 fold

## CCCCCCCCCCCC1=C(O)C(=O)C=C(O)C1=O [Embelin]
  fold increase in IFN-β release: 0.17 fold

## OC[C@H]1O[C@@H](c2ccc(Cl)c(Cc3ccc(O[C@H]4CCOC4)cc3)c2)[C@H](O)[C@@H](O)[C@@H]1O [Empagliflozin (BI 10773), Empagliflozin]
  fold increase in IFN-β release: 0.57 fold

## C[C@H](N[C@@H](CCc1ccccc1)C(=O)O)C(=O)N1CCC[C@H]1C(=O)O.O.O [Enalaprilat Dihydrate]
  fold increase in IFN-β release: 2.71 fold

## CCN(CC)C(=O)/C(C#N)=C/c1cc(O)c(O)c([N+](=O)[O-])c1 [Entacapone]
  fold increase in IFN-β release: 0.76 fold

## CNC(=O)c1ccc(N2C(=S)N(c3ccc(C#N)c(C(F)(F)F)c3)C(=O)C2(C)C)cc1F [Enzalutamide (MDV3100), Enzalutamide]
  fold increase in IFN-β release: 0.50 fold

## Cn1cc(C2=C(c3cn(C4CCN(Cc5ccccn5)CC4)c4ccccc34)C(=O)NC2=O)c2ccccc21 [Enzastaurin (LY317615), Enzastaurin]
  fold increase in IFN-β release: 1.02 fold

## CCOc1ccccc1-n1c(C(C)N2CCN(C(=O)COc3ccc(Cl)cc3)CC2)nc2ccccc2c1=O (stereo not drawn) [Erastin]
  fold increase in IFN-β release: 4.52 fold

## COc1ccc2nc([S@@+]([O-])Cc3ncc(C)c(OC)c3C)[nH]c2c1 [Esomeprazole Sodium]
  fold increase in IFN-β release: 0.95 fold

## CCc1cccc2c3c([nH]c12)C(CC)(CC(=O)O)OCC3 (stereo not drawn) [Etodolac]
  fold increase in IFN-β release: 0.35 fold

## CCOC(=O)c1cncn1[C@H](C)c1ccccc1 [Etomidate]
  fold increase in IFN-β release: 0.86 fold
